# System: irritable bowel syndrome
# Test: Clinical Study 2, controlled (slow) release darifenacin once daily vs placebo in irritable bowel syndrome
# Type: in vivo, human
# Details: 12 weeks; for Constipation % of patients reporting AEs / Dry Mouth % of patients reporting AEs / Global Rating % Reduction from baseline / Loose Stool % Reduction from baseline / Pain Score % Reduction from baseline / Total AE % of patients reporting AEs / Urgency % Reduction from baseline / Vision % of patients reporting AEs: uncorrected
# Excerpt: The invention may be illustrated by the following clinical studies wherein the treatment of irritable bowel syndrome using darifenacin administered as a once-daily controlled (slow) release formulation in accordance with the prior art is compared with treatment using darifenacin administered as a thrice daily immediate release formulation in accordance with the present invention. Specifically, Clinical Studies 1 and 2 used controlled (slow) release formulations of darifenacin administered once daily (od) and Clinical Study 3 used an immediate release formulation of darifenacin administered three times daily (tid).
# During each clinical study, four efficacy measures of irritable bowel syndrome severity were measured, viz. ‘Pain Score’ (Average daily pain score, a composite of severity and number of days of pain), ‘Loose Stool’ (Number of days on which loose or watery stool occurred), ‘Urgency’ (Number of days on which urgency occured) and so-called ‘Global Rating’ (Patient rating of their condition taking into account all symptoms, 0=no problems). Adverse events (AE) such as constipation, dry mouth and visual abnormalities were also recorded.
# Clinical Study 2 was a multi-centre, double-blind, randomised, placebo-controlled parallel group study in which four dose strengths of darifenacin of 3.75 mg, 7.5 mg, 15 mg and 30 mg dosed od were compared with placebo. Treatment lasted 12 weeks following a 2-week run-in period.
# The controlled (slow) release dosage forms of darifenacin used in Clinical Studies 1 and 2 were 3.75 mg, 7.5 mg, 15.0 mg and 30.0 mg tablets having the following compositions: […]
# [1] = controlled release tablet 3.75 mg od
# [2] = controlled release tablet 7.5 mg od
# [3] = controlled release tablet 15 mg od
# [4] = controlled release tablet 30 mg od
compound,measurement,setting,value
NC(=O)C(c1ccccc1)(c1ccccc1)[C@@H]1CCN(CCc2ccc3c(c2)CCO3)C1 [darifenacin],Constipation % of patients reporting AEs corrected for placebo,[1],4.5%
same,Dry Mouth % of patients reporting AEs corrected for placebo,[1],4.4%
same,Global Rating % Reduction from baseline corrected for placebo,[1],−7%
same,Loose Stool % Reduction from baseline corrected for placebo,[1],8%
same,Pain Score % Reduction from baseline corrected for placebo,[1],−9%
same,Total AE % of patients reporting AEs corrected for placebo,[1],6%
same,Urgency % Reduction from baseline corrected for placebo,[1],−1%
same,Vision % of patients reporting AEs corrected for placebo,[1],0.7%
same,Constipation % of patients reporting AEs,[1],6.4%
same,Dry Mouth % of patients reporting AEs,[1],9.6%
same,Global Rating % Reduction from baseline,[1],21%
same,Loose Stool % Reduction from baseline,[1],31%
same,Pain Score % Reduction from baseline,[1],28%
same,Total AE % of patients reporting AEs,[1],22%
same,Urgency % Reduction from baseline,[1],24%
same,Vision % of patients reporting AEs,[1],1.3%
same,Constipation % of patients reporting AEs corrected for placebo,[2],5.9%
same,Dry Mouth % of patients reporting AEs corrected for placebo,[2],4.4%
same,Global Rating % Reduction from baseline corrected for placebo,[2],−1%
same,Loose Stool % Reduction from baseline corrected for placebo,[2],16%
same,Pain Score % Reduction from baseline corrected for placebo,[2],0%
same,Total AE % of patients reporting AEs corrected for placebo,[2],6%
same,Urgency % Reduction from baseline corrected for placebo,[2],8%
same,Vision % of patients reporting AEs corrected for placebo,[2],0.6%
same,Constipation % of patients reporting AEs,[2],7.8%
same,Dry Mouth % of patients reporting AEs,[2],9.6%
same,Global Rating % Reduction from baseline,[2],27%
same,Loose Stool % Reduction from baseline,[2],39%
same,Pain Score % Reduction from baseline,[2],37%
same,Total AE % of patients reporting AEs,[2],22%
same,Urgency % Reduction from baseline,[2],33%
same,Vision % of patients reporting AEs,[2],1.2%
same,Constipation % of patients reporting AEs corrected for placebo,[3],11.6%
same,Dry Mouth % of patients reporting AEs corrected for placebo,[3],19.8%
same,Global Rating % Reduction from baseline corrected for placebo,[3],4%
same,Loose Stool % Reduction from baseline corrected for placebo,[3],30%
same,Pain Score % Reduction from baseline corrected for placebo,[3],2%
same,Total AE % of patients reporting AEs corrected for placebo,[3],15%
same,Urgency % Reduction from baseline corrected for placebo,[3],22%
same,Vision % of patients reporting AEs corrected for placebo,[3],2.6%
same,Constipation % of patients reporting AEs,[3],13.5%
same,Dry Mouth % of patients reporting AEs,[3],25%
same,Global Rating % Reduction from baseline,[3],32%
same,Loose Stool % Reduction from baseline,[3],53%
same,Pain Score % Reduction from baseline,[3],39%
same,Total AE % of patients reporting AEs,[3],41%
same,Urgency % Reduction from baseline,[3],47%
same,Vision % of patients reporting AEs,[3],3.2%
same,Constipation % of patients reporting AEs corrected for placebo,[4],15.1%
same,Dry Mouth % of patients reporting AEs corrected for placebo,[4],30.7%
same,Global Rating % Reduction from baseline corrected for placebo,[4],8%
same,Loose Stool % Reduction from baseline corrected for placebo,[4],27%
same,Pain Score % Reduction from baseline corrected for placebo,[4],3%
same,Total AE % of patients reporting AEs corrected for placebo,[4],34%
same,Urgency % Reduction from baseline corrected for placebo,[4],26%
same,Vision % of patients reporting AEs corrected for placebo,[4],4.6%
same,Constipation % of patients reporting AEs,[4],17%
same,Dry Mouth % of patients reporting AEs,[4],35.9%
same,Global Rating % Reduction from baseline,[4],36%
same,Loose Stool % Reduction from baseline,[4],50%
same,Pain Score % Reduction from baseline,[4],40%
same,Total AE % of patients reporting AEs,[4],50%
same,Urgency % Reduction from baseline,[4],41%
same,Vision % of patients reporting AEs,[4],5.2%
